Test results published in patent US4724233A, “Therapeutical application of phosphonylmethoxyalkyl adenines” (Stichting Rega VZW, priority 1985, dated 1988).
In brackets after ≈: the same amount, converted by molar mass. Like-named read-outs stand apart in the source and are kept apart here.

Tests used:
Herpes simplex I (KOS) = experiment: inhibition of cytopathic effect of herpes simplex 1 (KOS); format: cell-based, herpes simplex virus type 1; settings: PRK cells; for EC50: Human alphaherpesvirus 1, read-out: MIC50
Herpes simplex 2 (G) = experiment: inhibition of cytopathic effect of herpes simplex 2 (G); format: cell-based, herpes simplex virus type 2; settings: Human alphaherpesvirus 2, PRK, PRK cells, read-out: MIC50
HSV-1 (strain) McIntyre = experiment: inhibition of cytopathic effect of HSV-1 strain McIntyre; format: cell-based, herpes simplex virus type 1; settings: Human alphaherpesvirus 1; Table 4; HSV-1 McIntyre, PRK cells; read-out: MIC50
HSV-1 (strain) F = experiment: inhibition of cytopathic effect of HSV-1 strain F; format: cell-based, herpes simplex virus type 1; settings: Human alphaherpesvirus 1; Table 4; HSV-1 F, PRK cells; read-out: MIC50
HSV-2 (strain) 196 = experiment: inhibition of cytopathic effect of HSV-2 strain 196; format: cell-based, herpes simplex virus type 2; settings: Human alphaherpesvirus 2; Table 4; HSV-2 196, PRK cells; read-out: MIC50
HSV-2 (strain) Lyons = experiment: inhibition of cytopathic effect of HSV-2 strain Lyons; format: cell-based, herpes simplex virus type 2; settings: Human alphaherpesvirus 2; Table 4; HSV-2 Lyons, PRK cells; read-out: MIC50
[1] = tested on: HSV-1 (strain) TK^- B2006; experiment: inhibition of cytopathic effect of HSV-1 TK- strain B2006; format: cell-based, herpes simplex virus type 1; settings: Human alphaherpesvirus 1, PRK, read-out: MIC50
[2] = tested on: HSV-1 (strain) TK^- C1101; experiment: inhibition of cytopathic effect of HSV-1 TK- strain C1101; format: cell-based, herpes simplex virus type 1; settings: Human alphaherpesvirus 1, PRK, read-out: MIC50
VZV (strain) YS = experiment: microbe, parasite or virus in culture; format: cell-based, varicella-zoster virus; settings: Human alphaherpesvirus 3, Table 5, HEL cells, read-out: MIC50
VZV (strain) OKa = experiment: microbe, parasite or virus in culture; format: cell-based, varicella-zoster virus; settings: Human alphaherpesvirus 3, HEL, read-out: MIC50
VZV (strain) TK^- YSR = experiment: microbe, parasite or virus in culture; format: cell-based, varicella-zoster virus; settings: Human alphaherpesvirus 3, HEL, read-out: MIC50
VZV (strain) TK^- 07-1 = experiment: microbe, parasite or virus in culture; format: cell-based, varicella-zoster virus; settings: Human alphaherpesvirus 3, HEL, read-out: MIC50
CMV (strain) Davis = experiment: inhibition of CMV strain Davis in HEL cells; format: cell-based, cytomegalovirus; settings: Human betaherpesvirus 5, Table 5, read-out: MIC50
CMV (strain) AD 169 = experiment: inhibition of CMV strain AD 169 in HEL cells; format: cell-based, cytomegalovirus; settings: Human betaherpesvirus 5; Table 5; CMV AD 169, HEL cells; read-out: MIC50
TK^- herpes viruses = settings: Prusoff et al.; cited from earlier work
Reovirus = experiment: inhibition of cytopathic effect of reovirus; format: cell-based; settings: Reovirus sp.; Table 3; Vero B cells; read-out: MIC50
Parainfluenza 3 = experiment: inhibition of cytopathic effect of parainfluenza 3; format: cell-based; settings: Table 3; Vero B cells; read-out: MIC50
Sindbis = experiment: inhibition of cytopathic effect of Sindbis; format: cell-based; settings: Table 3; Vero B cells; read-out: MIC50
Coxsackie B4 = experiment: inhibition of cytopathic effect of Coxsackie B4; format: cell-based; settings: Enterovirus B, B4; Table 3; Vero B, HeLa cells; read-out: MIC50
Polio 1 = experiment: microbe, parasite or virus in culture; format: cell-based; settings: HeLa, read-out: MIC50
Measles = experiment: inhibition of cytopathic effect of measles; format: cell-based; settings: Measles morbillivirus; Table 3; Vero Flow cells; read-out: MIC50
Vesicular stomatitis = experiment: microbe, parasite or virus in culture; format: cell-based; settings: read-out: MIC50
Vaccinia = experiment: microbe, parasite or virus in culture; format: cell-based; settings: Orthopoxvirus vaccinia, PRK, read-out: MIC50
Moloney sarcoma = experiment: inhibition of Moloney sarcoma virus; format: cell-based, Moloney mouse sarcoma virus; settings: Mus musculus; Table 3; MO cells; read-out: MIC50
[3] = tested on: herpes simplex virus type 1 (HSV-1) (strain KOS); format: cell-based; settings: PRK cells
vaccinia virus (VV) = format: cell-based; settings: PRK cells, average of two determinations
in vitro [4] = settings: rabbit, prk cells
[5] = antimetabolic activity: incorporation of 3H-labeled precursors into primary rabbit kidney cells; settings: rabbit, prk cells
in vitro [6] = settings: rabbit, prk cells; remark: listed apart in the source
[7] = ID50 Leu incorporation, (3H-4,5)Leu
[8] = ID50 Urd incorporation, (3H-5)Urd
[9] = ID50 dThd incorporation, (3H-methyl) dThd
[10] = ID50 dUrd incorporation, (3H-1',2')dUrd
[11] = 48 h, 10 μg/ml (value in parentheses)

| Compound | EC50 (Herpes simplex 2 (G); Table 4, HSV-2 G) [µg/mL] | EC50 (HSV-1 (strain) McIntyre) [µg/mL] | EC50 (HSV-1 (strain) F) [µg/mL] | EC50 (HSV-2 (strain) 196) [µg/mL] | EC50 (HSV-2 (strain) Lyons) [µg/mL] | EC50 [2] [µg/mL] | EC50 (Reovirus) [µg/mL] | EC50 (Parainfluenza 3) [µg/mL] | EC50 (Sindbis) [µg/mL] | EC50 (Coxsackie B4) [µg/mL] | EC50 (Polio 1) [µg/mL] | EC50 (Measles) [µg/mL] | EC50 (Vesicular stomatitis) [µg/mL] | EC50 (Vaccinia) [µg/mL] | EC50 (Herpes simplex I (KOS); Table 3) [µg/mL] | EC50 (Herpes simplex 2 (G); Table 3) [µg/mL] | EC50 (Moloney sarcoma) [µg/mL] | Titer of HSV-1 ([3]; 24 h, 100 μg/ml) [log10 PFU/ml] | Titer of HSV-1 ([3]; 48 h, 100 μg/ml) [log10 PFU/ml] | MCC at 72 h (in vitro [4]) [µg/mL] | other results |
| --- | --- | --- | --- | --- | --- | --- | --- | --- | --- | --- | --- | --- | --- | --- | --- | --- | --- | --- | --- | --- | --- |
| O=c1[nH]c(=O)n([C@H]2C[C@H](O)[C@@H](CO)O2)cc1I [IDU, 5-iodo-2'-deoxyuridine, reference compound] | 0.2 (≈ 0.565 µM) | 0.2 (≈ 0.565 µM) | 0.2 (≈ 0.565 µM) | 2 (≈ 5.65 µM) | 0.2 (≈ 0.565 µM) |  |  |  |  |  |  |  |  |  |  |  |  |  |  |  | EC50 (Herpes simplex I (KOS); Table 4, HSV-1 KOS): 0.2 µg/mL (≈ 0.565 µM) |
| O=c1[nH]c(=O)n([C@H]2C[C@H](O)[C@@H](CO)O2)cc1/C=C/Br [BVDU, (E)-5-(2-bromovinyl)-2'-deoxyuridine, reference compound] | 2 (≈ 6 µM) | 0.02 (≈ 0.06 µM) | 0.02 (≈ 0.06 µM) | 70 (≈ 210 µM) | 7 (≈ 21 µM) | 70 (≈ 210 µM) |  |  |  |  |  |  |  |  |  |  |  |  |  |  | EC50 (Herpes simplex I (KOS); Table 4, HSV-1 KOS): 0.02 µg/mL (≈ 0.06 µM); EC50 [1]: > 200 µg/mL; EC50 (VZV (strain) YS): 0.006 µg/mL (≈ 0.018 µM); EC50 (VZV (strain) OKa): 0.007 µg/mL (≈ 0.021 µM); EC50 (VZV (strain) TK^- YSR): > 400 µg/mL; EC50 (VZV (strain) TK^- 07-1): > 400 µg/mL; EC50 (CMV (strain) Davis): 300 µg/mL (≈ 901 µM); EC50 (CMV (strain) AD 169): 200 µg/mL (≈ 600 µM); activity against TK^- herpes viruses (in words) (TK^- herpes viruses): inactive |
| Nc1ncnc2c1ncn2C[C@H](O)CO [(S)-DHPA, 9-(S)-(2,3-dihydroxypropyl)adenine, reference compound] |  |  |  |  |  |  | 100 (≈ 478 µM) | 25 (≈ 119 µM) | > 400 | 130 (≈ 621 µM) | > 400 | 20 (≈ 95.6 µM) | 20 (≈ 95.6 µM) | 50 (≈ 239 µM) | > 400 | > 400 | > 200 | 6.5 | 6.9 | > 400 | Titer of HSV-1 ([3]; 1 h, 100 μg/ml): 1.3 log10 PFU/ml; Titer of HSV-1 ([3]; 72 h, 100 μg/ml): 6.9 log10 PFU/ml; Titer of VV (vaccinia virus (VV); 1 h, 100 μg/ml): 2.0 log10 PFU/ml; Titer of VV (vaccinia virus (VV); 24 h, 100 μg/ml): 4.7 log10 PFU/ml; Titer of VV (vaccinia virus (VV); 48 h, 100 μg/ml): 5.2 log10 PFU/ml; Titer of VV (vaccinia virus (VV); 72 h, 100 μg/ml): 5.5 log10 PFU/ml; IC50 [5, 7]: > 400 µg/mL; IC50 [5, 8]: > 400 µg/mL; IC50 [5, 9]: 350 µg/mL (≈ 1670 µM); IC50 [5, 10]: > 400 µg/mL |
| Nc1ncnc2c1ncn2CC(O)COCP(=O)(O)O (racemic) [No. 2, (RS)-9-(2-hydroxy-3-phosphonylmethoxypropyl)-adenine] | 10 to 15 (≈ 33 to 49.5 µM) | 10 to 15 (≈ 33 to 49.5 µM) | 10 to 15 (≈ 33 to 49.5 µM) | 10 to 15 (≈ 33 to 49.5 µM) | 10 to 15 (≈ 33 to 49.5 µM) | 7 (≈ 23.1 µM) | > 200 | > 200 | > 400 | > 400 | > 400 | > 20 | > 400 | 0.3 to 1 (≈ 0.989 to 3.3 µM) | 2 to 10 (≈ 6.6 to 33 µM) | 10 to 15 (≈ 33 to 49.5 µM) | 4.5 (≈ 14.8 µM) | < 1.3 | < 1.3 | > 400 | MIC50 (Herpes simplex I (KOS); Table 4, HSV-1 KOS): 2 to 10 µg/mL; Titer of HSV-1 [3, 11]: < 6.0 log10 PFU/ml; Titer of VV (vaccinia virus (VV); 1 h, 100 μg/ml): 2.2 log10 PFU/ml; Titer of VV (vaccinia virus (VV); 24 h, 100 μg/ml): 2.2 log10 PFU/ml; Titer of VV (vaccinia virus (VV); [11]): < 1.3 log10 PFU/ml; Titer of VV (vaccinia virus (VV); 48 h, 100 μg/ml): 2.0 log10 PFU/ml; Titer of VV (vaccinia virus (VV); 72 h, 100 μg/ml): 1.8 log10 PFU/ml; IC50 [5, 7]: > 400 µg/mL; IC50 [5, 8]: > 400 µg/mL; IC50 [5, 9]: 280 µg/mL (≈ 923 µM); IC50 [5, 10]: > 400 µg/mL |
| Nc1ncnc2c1ncn2CCOCP(=O)(O)O [No. 6, 9-(2-phosphonylmethoxyethyl)adenine] |  | 30 (≈ 110 µM) |  | 15 (≈ 54.9 µM) | 15 (≈ 54.9 µM) | 7 (≈ 25.6 µM) | > 400 | > 400 | > 400 | > 200 | > 400 | > 400 | > 400 | 300 (≈ 1100 µM) | 15 to 30 (≈ 54.9 to 110 µM) | 7 (≈ 25.6 µM) | 0.67 (≈ 2.45 µM) | < 1.3 | 3.34 | ≥ 200 | MIC50 (Herpes simplex I (KOS); Table 4, HSV-1 KOS): 15 to 30 µg/mL; EC50 [1]: 3 µg/mL (≈ 11 µM); Titer of HSV-1 [3, 11]: 6.36 log10 PFU/ml; Titer of VV (vaccinia virus (VV); 48 h, 100 μg/ml): 5.54 log10 PFU/ml; IC50 (in vitro [6]; ID50 Leu incorporation): > 400 µg/mL; IC50 (in vitro [6]; ID50 Urd incorporation): > 400 µg/mL; IC50 (in vitro [6]; ID50 dThd incorporation): 242 µg/mL (≈ 886 µM); IC50 (in vitro [6]; ID50 dUrd incorporation): 114 µg/mL (≈ 417 µM) |
| Nc1ncnc2c1ncn2C[C@H](O)COCP(=O)(O)O (racemic) [No. 3, (RS)-9-(2-hydroxy-3-phosphonylmethoxypropyl)-adenine] | 30 to 150 (≈ 98.9 to 495 µM) | 150 (≈ 495 µM) | 70 to 150 (≈ 231 to 495 µM) | 70 to 150 (≈ 231 to 495 µM) | 30 to 100 (≈ 98.9 to 330 µM) | 30 to 40 (≈ 98.9 to 132 µM) | > 400 | > 400 | > 400 | > 400 | > 400 | > 400 | > 400 | 15 to 30 (≈ 49.5 to 98.9 µM) | 70 to 150 (≈ 231 to 495 µM) | 30 to 150 (≈ 98.9 to 495 µM) |  |  |  | ≥ 200 | MIC50 (Herpes simplex I (KOS); Table 4, HSV-1 KOS): 70 to 150 µg/mL; IC50 [5, 7]: > 400 µg/mL; IC50 [5, 8]: > 400 µg/mL; IC50 [5, 9]: > 400 µg/mL; IC50 [5, 10]: > 400 µg/mL |
